Measured values reported in patent US7910622B2, “Modulation of bacterial quorum sensing with synthetic ligands” (Wisconsin Alumni Research Foundation, priority 2007, dated 2011).

Experiments:
Experiment in all cases: cell-based
LuxR [1] = target: T1, LuxR (Aliivibrio fischeri, UniProt P35327); format: cell-based, Vibrio fischeri; details: for inhibition at 5 µM: read-out: V. fischeri-LuxR Inhibition [%], 5 μM synthetic ligand against 5 μM OHHL; for inhibition at 5 µM / V. fischeri-LuxR Inhibition [%]: V. fischeri ES114 (Δ-luxI), normalized to OHHL; for V. fischeri-LuxR Inhibition [%]: 5 μM synthetic ligand against 5 μM OHHL; for IC50: LuxR IC50, determined against 5 μM OHHL
T1 construct: a Δ-luxI derivative of V. fischeri ES114, in which the native lux operon behaves as the bioluminescent reporter; endogenous in cells; host or cells: V. fischeri ES114 (Δ-luxI)
Procedure: (§1) Luminescence assays. For agonism assays, an appropriate amount of AHL stock solution was added into a 96-well plate. An overnight culture of E. coli or V. fischeri was diluted 1:10 with appropriate media (LB plus 10 μg/mL tetracycline for E. coli; LBS for V. fischeri). A 200-μL portion of the diluted culture was added to each well of the plate. Plates were grown for 4-8 h with shaking (200 rpm; 30° C. for E. coli and RT for V. fischeri). Luminescence was measured using a multilabel plate reader and normalized to cell density. […] All assays were performed in triplicate. Graphpad Prism software was used to calculate IC50 and EC50 values.
(§2) Vibrio fischeri assay procedures. […] An overnight culture of V. fischeri ES114 (WT, Δ-luxI or Δ-luxR) was diluted 1:10 with LBS medium. A-200 μL portion of the diluted culture was added to each well of the plate. Plates were grown at RT with shaking (200 rpm) until the OD600=0.35-0.4 (4-6 h). Luminescence then was measured and normalized to cell density per well. […] All assays were performed in triplicate. IC50 and EC50 values were calculated using GraphPad Prism software using a sigmoidal curve fit.
(§3) V. fischeri reporter gene assay protocols. […] An overnight culture of V. fischeri ES114 (D-luxI) was diluted 1:10 with LBS medium. A 200-μL portion of the diluted culture was added to each well of the multititer plate. Plates were grown at RT with shaking (200 rpm) until the OD600=0.35-0.4 (4-6 h). Luminescence then was measured and normalized to cell density per well.
(§4) Dose response reporter gene assays. […] IC50 and EC50 values were calculated using GraphPad Prism software (v. 4.0) using a sigmoidal curve fit.
as §3, with “(Δ-luxI)” for “(D-luxI)”, “A200 μL” for “A 200-μL”, “incubated” for “grown”, “RT” for “RT with shaking (200 rpm)”
as §4

LuxR [2] = target: T1, LuxR; set-up: species or system Vibrio fischeri; details: V. fischeri ES114 (Δ-luxI), normalized to OHHL
Procedure: as §1, §2, §3, §4
as §3, with “(Δ-luxI)” for “(D-luxI)”, “A200 μL” for “A 200-μL”, “incubated” for “grown”, “RT” for “RT with shaking (200 rpm)”
as §4

TraR = target: T2, TraR (Agrobacterium tumefaciens, UniProt P33905)
T2 construct: These strains lack their AHL synthase (I) genes, but retain their native R genes; endogenous in cells; host or cells: A. tumefaciens WCF47 (Δ-traI) with PtraI-lacZ plasmid pCF372
Procedure: A. tumefaciens reporter gene assay protocols. […] An overnight culture of A. tumefaciens WCF47 (pCF372) was diluted to an OD600 of 0.1 in fresh AB minimal medium containing 400 μg/mL octopine and 50 μg/mL streptomycin. A 200 μL-portion of the diluted culture was added to each well of the multititer plate containing AHLs. Plates were grown at 28° C. for 18-20 h in a rotary shaking incubator (200 rpm). The cultures were then assayed for β-galactosidase activity following the Miller assay method. Briefly, 200 μL aliquots of bacteria from each of the wells were added to wells of a polystyrene 96-well plate and the OD600 of each well was recorded. Next, 50 μL aliquots from each well were transferred to a solvent resistant 96-well plate containing 200 μL Z buffer, 8 μL CHCl3 and 4 μL 0.1% aq. sodium dodecylsulfate (SDS). This suspension was mixed via repetitive pipetting, after which the CHCl3 was allowed to settle. A 100-μL aliquot from each well was transferred to a fresh polystyrene 96-well plate, and 20 μL of substrate, o-nitrophenyl-β-D-galactopyranoside (ONPG, 4 μg/mL in phosphate buffer), was added at time zero. After the development of appropriate yellow color (ca. 15-35 min), the reaction was terminated by the addition of 50 μL of 1 M Na2CO3. Absorbance at 420 nm and 550 nm was measured for each well using a plate reader, and Miller units were calculated according to standard methods.
as §4
A. tumefaciens reporter gene assay protocols. […] An overnight culture of A. tumefaciens WCF47 (pCF372) was diluted 1:10 with fresh AB minimal medium containing 400 μg/mL octopine and 50 μg/mL streptomycin. A 200 μL portion of the diluted culture was added to each well of the multititer plate containing AHLs. Plates were incubated at 28° C. for 18-24 h. The cultures were then assayed for β-galactosidase activity following the Miller assay method. Briefly, 200 μL aliquots of bacteria from each of the wells were added to wells of a 96-well multititer plate, and the OD600 of each well was recorded. Next, 50 μL aliquots from each well were transferred to a solvent resistant 96-well multititer plate containing 200 μL Z buffer, 8 μL CHCl3 and 4 μL 0.1% aq. SDS. This suspension was mixed via repetitive pipetting, after which the CHCl3 was allowed to settle. A 100 μL aliquot from each well was transferred to a fresh 96-well multititer plate, and 20 μL of substrate, o-nitrophenyl-β-D-galactopyranoside (ONPG, 4 μg/mL in phosphate buffer), was added at time zero. After the development of appropriate yellow color (ca. 20-30 min), the reaction was terminated by the addition of 50 μL of 1 M Na2CO3. Absorbances at 420 nm and 550 nm were measured for each well using a plate reader, and Miller units were calculated according to standard methods.
as §4

LasR [3] = target: T3, LasR (Pseudomonas aeruginosa, UniProt P25084); format: cell-based; details: for E. coli-LasR Inhibition [%]: 5 μM synthetic ligand against 7.5 nM OdDHL
T3 construct: expressed in transfected cells; host or cells: E. coli DH5α (pJN105L pSC11), arabinose-induced
Procedure: (§5) E. coli LasR reporter gene assay protocols. […] An overnight culture of E. coli DH5a (pJN105L pSC11) grown at 37° C. was subculture by diluting 1/10 in fresh LB medium containing 100 μg/mL ampicillin and 15 μg/mL gentamicin and shaking at 37° C. until OD600=0.3. Arabinose (4 mg/mL) was then added to induce the LasR promoter and a 200 μL-portion of this culture was added to each well of the multititer plate containing AHLs. Plates were grown at 37° C. for 2 hours in a rotary shaking incubator (200 rpm; OD600=0.45). The cultures were then assayed for activity following the identical β-galactosidase assay protocols used in the A. tumefaciens reporter gene assays.
as §4
(§6) E. coli LasR reporter gene assay protocols. […] An overnight culture of E. coli DH5α (pJN105L pSC11) was diluted 1:10 with fresh LB medium containing 100 μg/mL ampicillin and 15 μg/mL gentamicin. This sub-culture was incubated at 37° C. until OD600=0.3 (4-6 h). Arabinose (4 mg/mL) was then added to induce the LasR promoter, and a 200 μL portion of this culture was added to each well of the multititer plate containing AHLs. Plates were incubated at 37° C. until OD600=0.45 (4-6 h). The cultures were then assayed for LasR activity following the identical β-galactosidase assay protocols used in the A. tumefaciens reporter gene assays (see above).
as §4

LasR [4] = target: T3, LasR; details: 5 μM ligand; E. coli DH5α (pJN105L pSC11); normalized to OdDHL
Procedure: as §5, §4, §6, §4

[5] = E. coli DH5α (pJN105L pSC11), normalized to OdDHL

T2 sequence (P33905 whole entry): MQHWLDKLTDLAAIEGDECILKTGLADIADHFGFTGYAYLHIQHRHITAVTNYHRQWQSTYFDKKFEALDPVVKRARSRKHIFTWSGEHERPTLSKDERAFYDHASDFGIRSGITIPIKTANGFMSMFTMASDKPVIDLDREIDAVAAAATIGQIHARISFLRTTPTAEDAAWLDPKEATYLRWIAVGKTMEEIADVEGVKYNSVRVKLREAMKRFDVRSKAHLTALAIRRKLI
T1 sequence (P35327 whole entry): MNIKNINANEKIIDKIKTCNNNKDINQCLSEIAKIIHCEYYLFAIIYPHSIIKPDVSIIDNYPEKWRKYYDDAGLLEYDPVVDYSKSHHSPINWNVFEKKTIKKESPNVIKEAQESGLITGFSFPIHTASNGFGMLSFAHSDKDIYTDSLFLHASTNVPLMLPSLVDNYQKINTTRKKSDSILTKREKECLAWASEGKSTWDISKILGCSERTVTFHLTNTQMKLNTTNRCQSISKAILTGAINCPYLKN
T3 sequence (P25084 whole entry): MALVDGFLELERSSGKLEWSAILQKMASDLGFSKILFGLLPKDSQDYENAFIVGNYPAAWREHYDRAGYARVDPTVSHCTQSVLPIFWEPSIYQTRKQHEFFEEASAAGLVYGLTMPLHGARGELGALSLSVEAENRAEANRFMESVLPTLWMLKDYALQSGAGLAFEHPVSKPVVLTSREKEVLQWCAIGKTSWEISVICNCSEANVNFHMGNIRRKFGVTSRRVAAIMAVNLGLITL

For `O=C(Cc1ccc(-c2ccccc2)cc1)N[C@H]1CCOC1=O` [11q, 4-phenyl PHL], the inhibition at 5 µM (LuxR [1]) was roughly 80%.

In the case of `O=C(Cc1ccc(O)cc1)N[C@H]1CCOC1=O` [11w, 4-hydroxy PHL], the “V. fischeri-LuxR Inhibition [%]” value (LuxR [1]) is reported as “lowest inhibitory activities”.

`CCCCCC(=O)CC(=O)N[C@H]1CCOC1=O` [compound 1, N-(3-oxo-octanoyl)-L-homoserine lactone, reference compound] showed an activation at 200 µM (LuxR [2]; read-out: V. fischeri-LuxR Activation [%], 200 μM ligand) of roughly 25%, an EC50 (TraR; EC50 of autoinducer in A. tumefaciens WCF47 (pCF372), value in method text) of 0.1 µM and an EC50 (TraR; TraR EC50) of 0.2 µM. The activation at 10 µM (TraR; read-out: A. tumefaciens-TraR Activation [%]) was 100%, the inhibition at 5 µM (LuxR [1]) was 63% and the “E. coli-LasR Inhibition [%]” value (LasR [3]; [5]) was 50%. It also gave an IC50 (LasR [3]; determined against 7.5 nM OdDHL, read-out: LasR IC50) of 0.11 µM and an inhibition at 5 µM (LasR [3]; read-out: E. coli-LasR Inhibition [%], 5 μM synthetic ligand against 7.5 nM OdDHL, E. coli DH5α (pJN105L pSC11), normalized to OdDHL) of no less than 50%.

For `Nc1ccc(CC(=O)N[C@H]2CCOC2=O)cc1` [11v, 4-amino PHL], the “V. fischeri-LuxR Inhibition [%]” value (LuxR [1]) was “lowest inhibitory activities”.

Molecule `O=C(Cc1ccc(C(F)(F)F)cc1)N[C@H]1CCOC1=O` [11s, 4-trifluoromethyl PHL] has an IC50 (LuxR [1]) of 0.6 µM and an inhibition at 5 µM (LuxR [1]) of roughly 80%.

With 4-azido PHL [B20] the “V. fischeri-LuxR Activation [%]” value (LuxR [2]; 200 μM ligand) was 5%, the “E. coli-LasR Activation [%]” value (LasR [4]) was 0% and the “A. tumefaciens-TraR Activation [%]” value (TraR; 10 μM ligand, A. tumefaciens WCF47 (pCF372), normalized to OOHL) was 0%. The “E. coli-LasR Inhibition [%]” value (LasR [3]; [5]) was 19%.

In the case of `O=C(Cc1ccccc1)N[C@H]1CCOC1=O` [11a], the “V. fischeri-LuxR Inhibition [%]” value (LuxR [1]) is reported as “abolished inhibitory activity”.

In the case of `O=C(CCCc1ccccc1)N[C@@H]1CCOC1=O` [D-3], the “V. fischeri-LuxR Inhibition [%]” value (LuxR [1]) is reported as “ca. 20%”.

`CCCCCCCCCC(=O)CC(=O)N[C@H]1CCOC1=O` [A8, N-(3-oxo-dodecanoyl)-L-homoserine lactone, reference compound] was tested, and the IC50 (LuxR [1]) was 0.4 µM.
